“And” between values parts separate entries of the source, which are not always exact repeats. Identical values can stand only once.
Key:
anti-LPA antibody, 504B3 = assay: free solution assay (FSA) measured in a compensated interferometric reader (CIR), equilibrium binding of lipids to antibody; set-up: species or system murine; conditions: 5 μg/ml 504B3, 0–50 nM ligand; for Kd: read-out: KD from FSA ± SD (95% CI); for Bmax (95% CI): one-site specific binding fit of the ΔRI signal
Experimental: The FSA configuration required refractive index (RI)-matched sample and reference solutions (Fig. 2). The binding affinity determinations were done in an end-point assay format. A ligand dilution series (100, 20, 4, 0.8, 0.16, 0.032, and 0 nM) was prepared in 0.01% BSA / 0.002% EtOH/Phosphate buffered saline (PBS; ThermoFisher Scientific, Waltham, MA, USA) from an intermediate stock of 200 nM LPs in 0.01% BSA / 0.002% EtOH/PBS. Lipids were prepared in fatty acid-free BSA solutions to approximate the biological conditions of LPs. Then, each LP dilution was combined with PBS-only to create the reference solution, or 10 μg/ml of the 504B3 antibody in PBS to create the corresponding binding sample solution (Fig. 2). Sample and reference solutions were kept at RT in a shaker for approximately 1-h to reach equilibrium and then analyzed using the CIR. The final concentrations were 5 μg/ml of antibody and 0–50 nM of ligand in a final buffer composition of 0.005% BSA / 0.001% EtOH/PBS. The details of the interferometer instrumentation have been described elsewhere. Briefly, it consists of a diode laser, two mirrors, one glass capillary, and a CCD camera. Droplet trains of sample-reference pairs were maintained at a constant flow rate in the capillary using a droplet generator (Mitos Dropix; Dolomite Microfluidics, (Royston, North Hertfordshire, UK)) and a syringe pump (Harvard Apparatus, Holliston, MA, USA). Together, the interferometer, a syringe pump (at a flow rate of 10 μL/min), and a droplet generator comprise the CIR. The RI change between the binding sample and reference was measured as a positional shift in backscattered interference fringes produced from the interaction between an expanded beam profile of the laser and a capillary filled with sample-reference solutions [24]. The shift of the backscattered fringe patterns, which is equivalent to molecular binding, was quantified using fast Fourier transform of selected fringes captured in a CCD array. The assay was measured sequentially, as reference, then sample for each concentration, as described previously. The concentration dependent signal was plotted using a non-linear regression, one-site specific binding (Y=Bmax*X/(KD + X) + D; where D is the offset value) isotherm fit in GraphPad Prism Version 8 to determine the equilibrium dissociation constants (KDs). […] The sample and reference solutions were prepared by mixing a ligand dilution series (0–100 nM) with an equivalent volume of the 504B3 solution (sample; 10 μg/ml dissolved in PBS, pH 7.4) or PBS only (reference) (Fig. 2).

LPA1 = target: LPA1; set-up: method as in PMID 30463988, PMID 32513900; conditions: CIR; cited from earlier work
[1] = 0.005% BSA / 0.001% EtOH/PBS, about 1 h at RT, one-site specific binding fit

| Compound | specific binding signal (ΔRI) with 504B3 (anti-LPA antibody, 504B3) | specific binding signal (ΔRI) with 504B3 (anti-LPA antibody, 504B3; listed as S1P) | Kd (anti-LPA antibody, 504B3; [1]) | Bmax (95% CI) (anti-LPA antibody, 504B3) | KD from FSA ± SD (95% CI) (anti-LPA antibody, 504B3; [1]) | native equilibrium binding (KD) to LPA1 (LPA1) |
| --- | --- | --- | --- | --- | --- | --- |
| CCCCCCCCCCCCC/C=C/[C@@H](O)[C@@H](N)COP(=O)(O)O [18:1 S1P, sphingosine 1-phosphate (d18:1)] | No specific binding signal | no signal |  |  |  |  |
| CCCCCCCC/C=C\CCCCCCCC(=O)OC[C@@H](O)COP(=O)([O-])OCC[N+](C)(C)C [18:1 LPC, 1-oleoyl-lysophosphatidylcholine] |  |  | ~8.5 nM and 8.5 nM | 0.14 (0.12 to 0.16) |  |  |
| CCCCCCCCCCCCCCCC(=O)OC[C@@H](O)COP(=O)(O)O [16:0 LPA, 1-palmitoyl-LPA (16:0)] |  |  | > 30 nM | 0.39 (undetermined^a) | weaker affinity | comparable binding |
| CCCCCCCC/C=C\CCCCCCCC(=O)OC[C@@H](O)COP(=O)(O)O [18:1 LPA, 1-oleoyl-LPA (18:1)] |  |  | 3.7 ± 2.8 nM | 0.17 (0.14 to 0.25) |  | comparable binding |

Reference: PMC8048308, “Lysophosphatidic acid (LPA)-antibody (504B3) engagement detected by interferometry identifies off-target binding” (Lipids in Health and Disease, 2021)
